Experimental data from paper PMC4965013, “Open Source Drug Discovery with the Malaria Box Compound Collection for Neglected Diseases and Beyond” (PLoS Pathogens, 2016).

What was measured:
Dictyostelium discoideum = experiment: D. discoideum toxicity assay; assay type: cell-based; settings: 10µM
Procedure: (§1) Columns FA-FC: Soldati Group (data presented first in this paper). M. marinum, D. discoideum, and Acathamoeba castellani assays. Each compound of the Malaria Box has been assayed at 10 µM in all three assays. First, the antibiotic activity was assayed directly against Mycobacterium marinum in its culture medium. Second, the toxicity and growth inhibitory effect of the compounds was assayed against the amoeba Dictyostelium discoideum in its culture medium. Finally, the “in cellulo” anti-infective activity of each compound was tested using the intracellular infection system Acanthamoeba castellanii-M. marinum. Values have been normalized using the DMSO carrier. For each assay, values have been normalized to 1.00 using the DMSO carrier, which has no detectable effect on D. discoideum nor M. marinum growth, while rifabutin was used as positive control for the antibiotic assay and the infection assay, as it abolishes M. marinum growth (normalized value under 0.10) in broth at 10 µM and intracellularly at 30 µM [150].

[1] = test system: P. falciparum 3D7A stage V gametocytes, female gamete formation; parameters: method as in ref [73] (a number printed in a supplementary file, which may have a reference list of its own: not looked up in the article's list); settings: 5µM; ref [73]; cited from earlier work
[2] = test system: Mycobacterium tuberculosis mc26220 non-replicating; experiment: microbe, parasite or virus in culture; assay type: cell-based
[3] = test system: Entamoeba histolytica Rahman; parameters: method as in ref [87] (a number printed in a supplementary file, which may have a reference list of its own: not looked up in the article's list); settings: read-out: Entamoeba histolytica Rahman EC50 (30 means >30); ref [87]; cited from earlier work
P. falciparum Dd2 = experiment: Malaria Sybr Green I Fluorescence assay Dd2 Horrocks; assay type: cell-based; settings: Plasmodium falciparum, DD2, 48 h; read-out: P. falciparum Dd2 asexual blood stage EC50 Horrocks
Procedure, shortened: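 Dd2 asexual parasites started at 2% trophozoite-stage parasitaemia and 2% hematocrit; growth read by SYBR Green I fluorescence after 48 h. IC50 values taken from log dose-response curves.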

S. mansoni adult worms = S. mansoni adult worms LSHTM Bickle; assay type: cell-based, Schistosoma mansoni; settings: 15 μM
Procedure: Columns DI-DJ, DL: Bickle group. (columns DI and DL data presented first in this paper, column DJ partially published in ref [95].). […] Male CD1 mice (aged 5–6 weeks) were bred on site using SPF conditions with access of food and water ab libitum. Worms were obtained by portal perfusion of CD1 mice (Charles River, UK) 6 weeks post-infection and 3 worm pairs added to the wells of 48 well plates (Nunc, UK) in 1 ml complete DMEM medium supplemented with 10% fetal calf serum (Gibco, UK), 2 mM L-glutamine, 100 U/ml penicillin, 100 µg/ml streptomycin (cDMEM). A primary adult worm screen was performed in which 400 MMV compounds were tested at 15 µM in 0.15% DMSO. Negative controls contained worms cultured in cDMEM alone and in cDMEM with 0.15% DMSO. Positive control wells contained worms cultured in Praziquantel (Sigma-Aldrich, UK) at 10 µM. Cultures were incubated at 37 °C and 5% CO2. Effects were assessed on day 5 of culture using an inverted microscope (Leitz Diavert Wetzlar, Germany). Any compounds producing complete immobility or ≥ 70% worm motility inhibition plus severe morphological damage were considered hits in the primary screen. […] IC50 for the compounds was calculated using Microsoft XLfit version 5.1.0.0 (2006-2008 ID Business Solutions Ltd). In vitro screening of S. mansoni schistosomula run at LSHTM (London): Schistosomula were prepared as previously reported with the modification of using a 45% and 70% Percoll gradient and the cercarial heads recovered from the 70% layer. All centrifugation steps were done at 350 xg. An appropriate volume of drug Stock was pre-added to wells in 96-well microtiter culture plates (Nunc, UK) containing 100 µl complete M169 (cM169). The wells were then topped up with another 100 µl of cM169 containing 100 schistosomula to give final concentrations of 15 µM of compound per well. Negative controls contained larvae cultured in cM169 alone and in cM169 with 0.5% DMSO. Positive control wells contained schistosomula cultured in Praziquantel (Sigma-Aldrich, UK) at 10 µM. Cultures were incubated at 37 °C and 5% CO2. Effects were assessed on day 3 of culture using an inverted microscope (Leitz Diavert Wetzlar, Germany). Any compounds producing complete immobility or ≥ 70% motility inhibition plus severe morphological damage were considered hits in the larval screen.

P. berghei ookinetes = test system: P. berghei ookinetes; parameters: method as in ref [74] (a number printed in a supplementary file, which may have a reference list of its own: not looked up in the article's list); settings: 1µM; ref [74]; cited from earlier work
[4] = test system: Saccharomyces cerevisiae strain JHY222; experiment: S. cerevisiae JHY222 growth in three media; assay type: cell-based; settings: 100µM
Procedure: Columns EB-ED: St. Onge group (data presented first in this paper). Growth inhibition of S. cerevisiae: The effects of Malaria Box compounds on the growth of yeast (Saccharomyces cerevisiae) were quantified as described previously. We employed the prototrophic yeast strain JHY222, a derivative of BY4743 in which auxotrophic markers have been repaired. Growth was measured in three different growth media: rich medium using dextrose as a carbon source, minimal medium using dextrose as a carbon source, or minimal medium using ethanol and glycerol as carbon sources. Compounds affecting growth in a media-specific manner may represent inhibitors of key metabolic pathways. For example, the antifolate drug methotrexate was previously shown to inhibit yeast growth far more potently in minimal medium compared to rich medium.

B. bovis (Texas strain) = experiment: B. bovis fluorescence-based growth assay; assay type: cell-based; settings: Babesia bovis, in Bos taurus
Mycobacterium marinum = experiment: M. marinum antibiotic assay; assay type: cell-based; settings: 10µM
Procedure: as §1

Structure (SMILES): CCOC(=O)c1cnc2ccc(OC)cc2c1NCc1ccccc1 [MMV665813]
- Dictyostelium discoideum relative growth DMSO=1 Toxicity Assay (Dictyostelium discoideum): 0.71
- 3D7A female gamete formation acridine orange % inhibition [1]: -11%
- inhibition at 25 µM [2]: 23%
- EC50 [3]: > 30 µM
- EC50 (P. falciparum Dd2): 4890 nM
- Schistosoma mansoni adult worm primary assay % Motility Reduction (Hit ≥ 70%) (S. mansoni adult worms): 0%
- P. berghei ookinete assay % inhibition (P. berghei ookinetes): -6.8%
- S. cerevisiae jhy222 in YNBD medium growth compared with DMSO control [4]: -0.13
- S. cerevisiae jhy222 in YNBEG medium growth compared with DMSO control [4]: -0.06
- S. cerevisiae jhy222 in YPD medium growth compared with DMSO control [4]: 0.0021
- EC50 (B. bovis (Texas strain)): 0.72 µM
- Mycobacterium marinum relative growth DMSO=1 Antibiotic Assay (Mycobacterium marinum): 0.86

Structure (SMILES): CCN1CCN(c2cc(C)c3cc(NC(=O)c4ccc(OC)c(OC)c4)ccc3n2)CC1 [MMV019074]
- 3D7A female gamete formation acridine orange % inhibition [1]: -18%
- inhibition at 25 µM [2]: 13%
- EC50 [3]: > 30 µM
- EC50 (P. falciparum Dd2): 1850 nM
- Schistosoma mansoni adult worm primary assay % Motility Reduction (Hit ≥ 70%) (S. mansoni adult worms): 25%
- P. berghei ookinete assay % inhibition (P. berghei ookinetes): -2.9%
- S. cerevisiae jhy222 in YNBD medium growth compared with DMSO control [4]: 0.0025
- S. cerevisiae jhy222 in YNBEG medium growth compared with DMSO control [4]: -0.0049
- S. cerevisiae jhy222 in YPD medium growth compared with DMSO control [4]: -0.0537
- EC50 (B. bovis (Texas strain)): 6.69 µM

Structure (SMILES): CCN(CC)c1cc(C)c2cc(NC(=O)c3cccc(OC)c3)ccc2n1 [MMV000498]
- Dictyostelium discoideum relative growth DMSO=1 Toxicity Assay (Dictyostelium discoideum): 0.60
- 3D7A female gamete formation acridine orange % inhibition [1]: 3%
- inhibition at 25 µM [2]: 20%
- EC50 [3]: > 30 µM
- EC50 (P. falciparum Dd2): 2770 nM
- Schistosoma mansoni adult worm primary assay % Motility Reduction (Hit ≥ 70%) (S. mansoni adult worms): 0%
- P. berghei ookinete assay % inhibition (P. berghei ookinetes): -7.5%
- S. cerevisiae jhy222 in YNBD medium growth compared with DMSO control [4]: -0.05
- S. cerevisiae jhy222 in YNBEG medium growth compared with DMSO control [4]: 0.14
- S. cerevisiae jhy222 in YPD medium growth compared with DMSO control [4]: -0.0562
- EC50 (B. bovis (Texas strain)): 10 µM
- Mycobacterium marinum relative growth DMSO=1 Antibiotic Assay (Mycobacterium marinum): 0.98

Structure (SMILES): COc1ccc(C(=O)Nc2ccc3nc(N4CCCCC4)cc(C)c3c2)cc1OC [MMV019758]
- Dictyostelium discoideum relative growth DMSO=1 Toxicity Assay (Dictyostelium discoideum): 0.88
- inhibition at 25 µM [2]: 24%
- EC50 [3]: > 30 µM
- EC50 (P. falciparum Dd2): 614 nM
- Schistosoma mansoni adult worm primary assay % Motility Reduction (Hit ≥ 70%) (S. mansoni adult worms): 50%
- P. berghei ookinete assay % inhibition (P. berghei ookinetes): -18.9%
- S. cerevisiae jhy222 in YNBD medium growth compared with DMSO control [4]: 0.0051
- S. cerevisiae jhy222 in YNBEG medium growth compared with DMSO control [4]: 0.20
- S. cerevisiae jhy222 in YPD medium growth compared with DMSO control [4]: 0.0044
- EC50 (B. bovis (Texas strain)): 14.3 µM
- Mycobacterium marinum relative growth DMSO=1 Antibiotic Assay (Mycobacterium marinum): 1.01

Structure (SMILES): COc1cc2cc(C(=O)Nc3ccccc3)c(N)nc2cc1OC [MMV006767]
- 3D7A female gamete formation acridine orange % inhibition [1]: -3%
- inhibition at 25 µM [2]: 1.39%
- EC50 [3]: > 30 µM
- EC50 (P. falciparum Dd2): 884 nM
- Schistosoma mansoni adult worm primary assay % Motility Reduction (Hit ≥ 70%) (S. mansoni adult worms): 0%
- P. berghei ookinete assay % inhibition (P. berghei ookinetes): 8.6%
- S. cerevisiae jhy222 in YNBD medium growth compared with DMSO control [4]: -0.11
- S. cerevisiae jhy222 in YNBEG medium growth compared with DMSO control [4]: -0.49
- S. cerevisiae jhy222 in YPD medium growth compared with DMSO control [4]: -0.0536
- EC50 (B. bovis (Texas strain)): 0.86 µM
